Source: US20180172683A1, “METHODS FOR ANALYZING THE INTERACTION BETWEEN A TARGET PROTEIN AND A LIGAND” (UNIVERSITY OF SOUTHERN CALIFORNIA, priority 2015, published 2018)
Peptide text beside a SMILES is read from it. * marks the point of attachment. Biotin = O=C1N[C@H]2[C@H](CS[C@H]2CCCCC(=O)*)N1

Target: T1, Bcl-xL (Homo sapiens, UniProt Q07817)
T1 construct: The gene for the first 209 amino acids of Bcl-xL; made in house; host or cells: E. coli BL21(DE3), pET24a vector
Experiment: High-throughput sequencing kinetic (HTSK) on- and off-rates of mRNA-peptide fusions
Assay type: binding
Conditions: mRNA-peptide fusions, next-generation sequencing
Method: Preparing the pools of fusion ligands. The DNAs for the final enriched pools from the extension and the doped selection against Bcl-xL were generated. The DNA pools were PCR amplified using Taq polymerase and in vitro transcribed into mRNA using T7 RNA polymerase (Liu et al., Methods Enzymol. 318, 268-293 (2000)). After transcription, the mRNA was urea-PAGE purified and resuspended in deionized water to a final concentration of 30 μM. The mRNA was then ligated to fluorescein-F30P (phosphate-dA21-[dT-fluor]-[C9]3-dAdCdCP; where [dT-fluor] is fluorescein dT (Glen Research), [C9] is spacer 9 (Glen Research), and P is puromycin (Glen Research); synthesized at the Keck Oligo Facility at Yale) using T4 DNA ligase (Takahashi et al., Methods Mol. Biol. 535, 293-314 (2009)). The ligation was performed using a splint complementary to the 3′ end of the RNA and the 5′ end of the DNA-linker. The ligated mRNA was urea-PAGE purified and resuspended in deionized water to final concentration of 30 μM. The samples were in vitro translated in the translation solution-150 mM KOAc, 750 μM MgCl2, 2 μM mRNA, in 1× translation mix (20 mM Hepes-KOH pH 7.6, 100 mM creatine phosphate, 2 mM DTT, and 312.5 μM of each amino acid) and 60% (v/v) rabbit reticulocyte lysate. To prepare radiolabeled peptides or proteins, non-labeled methionine was substituted with ^35S-labeled methionine (Perkin Elmer; 20 μCi for each 25 μL of translation). The translation reactions were incubated at 30° C. for one hour. To form mRNA-protein fusions, KCl and MgCl2 were added to the reaction to final concentrations of 250 mM and 30 mM respectively after translation, and the samples were frozen at −20° C.
To purify the fusion molecules, 100 μL of dT cellulose (25% (v/v) slurry, GE Healthcare) in isolation buffer (100 mM Tris-HCl pH 8.0, 1 M NaCl, 0.2% (v/v) Triton X-100) was added and incubated for 1 hour. The beads were washed five times with 700 μL of isolation buffer, and the fusions were eluted with 3×80 μL of 65° C. water and desalted through Centrisep columns (Princeton Separations). The desalted fusions were adjusted to 1×RT buffer (50 mM Tris-HCl pH 8.3, 75 mM KCl, 3 mM MgCl2, […], […],) and the sample was heated to 65° C. for 5 minutes and cooled on ice to anneal the 3′ primer. After cooling, […] of Superscript II enzyme was added and the reaction incubated at 42° C. for one hour. […]
On- and off-rate experiments. […] The radiolabeled samples were washed 3×, and the beads were counted via a scintillation counter.
To obtain the HTSK off-rates, after the kinetic on-rate experiment, the remaining beads were washed 5× with selection buffer. […] The radiolabeled samples were washed and counted via a scintillation counter. […]

T1 sequence (Q07817 1-209 limits assumed): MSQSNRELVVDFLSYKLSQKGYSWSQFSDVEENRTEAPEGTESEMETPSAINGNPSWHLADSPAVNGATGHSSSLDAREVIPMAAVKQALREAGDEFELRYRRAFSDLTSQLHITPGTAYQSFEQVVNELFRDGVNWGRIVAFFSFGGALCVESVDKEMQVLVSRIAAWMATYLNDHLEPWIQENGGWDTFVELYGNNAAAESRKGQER

SMILES	koff [s⁻¹]
CC[C@H](C)[C@H](NC(=O)[C@H](C)NC(=O)[C@@H](NC(=O)[C@@H](N)CCSC)[C@@H](C)CC)C(=O)N[C@@H](CO)C(=O)N[C@H](C(=O)N[C@H](C(=O)N[C@@H](Cc1ccc(O)cc1)C(=O)N[C@@H](CC(N)=O)C(=O)N[C@@H](Cc1ccc(O)cc1)C(=O)N[C@@H](CCCCN)C(=O)N[C@@H](CCCCN)C(=O)N[C@@H](C)C(=O)N[C@@H](C)C(=O)N[C@@H](CC(=O)O)C(=O)N[C@@H](Cc1c[nH]cn1)C(=O)N[C@@H](Cc1ccc(O)cc1)C(=O)N[C@@H](C)C(=O)N[C@@H](CCSC)C(=O)N[C@H](C(=O)N[C@@H](CCCCN)C(=O)NCC(=O)N[C@@H](CO)C(=O)N[C@@H](CCCCNC(=O)CCCC[C@@H]1SC[C@@H]2NC(=O)N[C@@H]21)C(N)=O)[C@@H](C)O)[C@@H](C)CC)[C@@H](C)O [D1] (H-MIAISTIYNYKKAADHYAMTKGSK(Biotin)-NH2)	1e-06
CC[C@H](C)[C@H](NC(=O)[C@@H](NC(=O)[C@@H](NC(=O)[C@@H](NC(=O)[C@H](CCC(=O)O)NC(=O)[C@@H](NC(=O)[C@@H](N)CCSC)[C@@H](C)CC)[C@@H](C)O)[C@@H](C)CC)[C@@H](C)O)C(=O)N[C@@H](Cc1ccc(O)cc1)C(=O)N[C@@H](CC(N)=O)C(=O)N[C@@H](Cc1ccc(O)cc1)C(=O)N[C@@H](CCCCN)C(=O)N[C@@H](CCCCN)C(=O)N[C@@H](C)C(=O)N[C@@H](C)C(=O)N[C@@H](CC(=O)O)C(=O)N[C@@H](Cc1c[nH]cn1)C(=O)N[C@@H](Cc1ccccc1)C(=O)N[C@@H](CO)C(=O)N[C@@H](CCSC)C(=O)N[C@@H](CO)C(=O)N[C@@H](CCSC)C(=O)NCC(=O)N[C@@H](CO)C(=O)N[C@@H](CCCCNC(=O)CCCC[C@@H]1SC[C@@H]2NC(=O)N[C@@H]21)C(N)=O [E1] (H-MIETITIYNYKKAADHFSMSMGSK(Biotin)-NH2)	2.5e-06
